Results on two compounds are retold here after patent US8101628B2, “Imidazolidinonyl aminopyrimidine compounds for the treatment of cancer” (Eli Lilly and Company, priority 2007, dated 2012).

Like-named read-outs stand apart in the source and are kept apart here.

The conditions of data set [1]: in man, cited from earlier work.
In data set [2] the test system is HCT116, A549 and NCIH460 murine xenografts. As to conditions: cited from earlier work.
For data set [3], the target named is T1, Plk1-Flag-His6 tag fusion enzyme (Human Plk1) (Homo sapiens, UniProt P53350).
T1 construct: made in house; host or cells: Sf9 cells (baculovirus, pFastBac vector)
T1 sequence (P53350 whole entry, the tested form may be a part): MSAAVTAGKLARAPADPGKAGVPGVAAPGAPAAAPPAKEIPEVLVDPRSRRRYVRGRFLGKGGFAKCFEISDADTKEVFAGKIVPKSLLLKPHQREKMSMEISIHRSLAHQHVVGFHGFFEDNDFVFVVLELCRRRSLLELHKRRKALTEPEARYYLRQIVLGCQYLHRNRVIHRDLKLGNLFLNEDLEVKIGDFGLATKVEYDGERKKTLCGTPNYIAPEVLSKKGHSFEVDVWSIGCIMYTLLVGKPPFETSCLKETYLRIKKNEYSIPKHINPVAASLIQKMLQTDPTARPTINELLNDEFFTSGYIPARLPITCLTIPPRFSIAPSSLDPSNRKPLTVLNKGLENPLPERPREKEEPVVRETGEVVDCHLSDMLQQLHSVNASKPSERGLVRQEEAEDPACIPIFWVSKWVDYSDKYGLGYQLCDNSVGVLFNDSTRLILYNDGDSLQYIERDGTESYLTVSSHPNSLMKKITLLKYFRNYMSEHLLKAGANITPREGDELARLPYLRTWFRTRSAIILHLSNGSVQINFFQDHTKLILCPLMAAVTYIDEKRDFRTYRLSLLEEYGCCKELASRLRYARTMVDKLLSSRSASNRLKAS
Put plainly: Plk1 Inhibition Assay. In kind it is biochemical. Particulars: 5.0 μM ATP, GST-Cdc25c (1-206) substrate, 60 min room temperature; MSR 3.6; read-out: Plk1 IC50 (absolute IC50). The source says: Human Plk1 cDNA, which may be obtained from a number of sources, such as Incyte (accession number: NM_005030), may be directly linked at one of its termini with a polynucleotide sequence expressing a His6 tag, such as the C-terminal FLAG-His6 tag, and inserted into an appropriate expression vector, such as a pFastBac™ vector (Invitrogen) and transfected into an appropriate system, such as baculovirus similar to what has been reported by Yue-Wei Qian, et al., Science 282, 1701 (1998) for xPlkk1. If a viral expression system is used, then the virus (e.g., baculovirus bearing a Plk1-Flag-His6 tag polynucleotide construct) is infected into a culture of a suitable host cell, such as Sf9 cells. […]
Plk1 kinase reactions contain Plk1-Flag-His6 tag fusion enzyme (0.2 ng/μL) in a buffer containing 50 mM HEPES, pH 7.3, 1.0 mM dithiothreitol, 5.0 μM ATP, 10 mM MgCl2, 0.01% TRITON® X-100, 0.4 μCi ^33P-ATP, and 0.06 μg/μL GST-Cdc25c (1-206) peptide. […] Wells are dried before addition of 40 μL of MicroScint™20 (Packard) and then counted on a Wallac MICROBETA® Jet. The percentage inhibition values from the 10-point concentration response data are subsequently analyzed, for example, using ACTIVITY BASE™ software (IDBS), using a 4-parameter logistic equation. Absolute IC50 values are calculated from the resulting curve fit.

The test system of the next data set is HeLa Cells. Put plainly: pHH3(S10), Mitotic Cells, and DNA Content Assays. In kind it is cell-based. Particulars: Homo sapiens, 23 hours exposure. The protocol: HeLa Cells from the American Type Culture Collection (ATCC) are plated at 200 cells/well in 96 well […] BIOCOAT™ plates, and are incubated in MEM (Minimum Essential Medium, e.g., GIBCO, catalog #11095) with 10% FBS (Fetal Bovine Serum) in 37° C., 5% CO2 for 24 hours. Cells are treated by adding compound (in 0.25% DMSO) to the medium, dosing at 10 points across the range 0.5 μM to 0.0098 μM. After 23 hours exposure to the compounds, cells are fixed, for example with the PREFER™ fixative [Anatech LTD., Catalog #414] for 30 min then are permeabilized with 0.1% TRITON® X100 in phosphate buffered saline (PBS) solution for 15 min. Cells are washed 3 times with PBS then digested with 50 μg/mL RNAse. Primary antibody, phosphohistone H3 (Upstate Cat#06-570), is added at 1:500 in PBS with 1% bovine serum albumin (BSA) to the cells over night at 4° C. After 3 PBS washes, cells are incubated with Alexa488 labeled secondary antibody (Invitrogen cat #A11008) for 1 hour at room temperature. Again they are washed 3 times with PBS, and then 15 μM propidium iodide (Molecular Probes cat #P3566) is added for 30 min to stain nuclei. Fluorescence Plates are scanned with ACUMEN EXPLORER™ [Laser-scanning fluorescence microplate cytometer (comprising of 488 nm argon ion laser excitation and multiple photomultiplier tube detection), manufactured by TTP LABTECH LTD] to measure phosphohistone H3, DNA content and mitotic cells as measured by DNA condensation. Image analyses are based on cellular fluorescent signals for identifying cells in different subpopulations. pHH3(S10) positive cells are identified by mean intensity at 500-530 nm above the threshold. Total intensity at 655-705 nm from propidium iodide/DNA is used to identify individual cells (cells with DNA content from 2N to 4N) and subpopulations in cell cycle (2N cells, 4N cells). Peak intensity at 575-640 nm is used to identify DNA condensation that is used as the marker to identify mitotic cells among 4N cells. […] The EC50 is determined by curve fitting to a four parameter logistic for each output using ACTIVITY BASE™. […]

In another data set the test system is HCT116 cells. Description: Antiproliferative Assay. It is filed as cell-based. Particulars: Homo sapiens, HCT-116, e.g. 72 hours exposure, Alamar Blue, n=3, MSR 3.1. The protocol: The effects of compounds on cell proliferation can be determined using cells and cell proliferation methods well-known in the art (Robert C. Squatrito et al., Gynecological Oncology, 58, 101-105, (1995)). For example, HCT116 cells, which may be obtained from the American Type Culture Collection, may be seeded at 2000 cells/well in 96-well plates and allowed to attach overnight in a humidified CO2 incubator at 37° C. Following the 20-24 hour incubation, half-log serially diluted compounds are added and the plates are returned to the incubator. After an appropriate length of exposure (e.g., 72 hours), cell proliferation is estimated using well-known methods. In one method, 10 μL of a tetrazolium salt, such as Alamar Blue™ is added to the cell plates. After an appropriate exposure to the dye, fluorescence (530 nm excitation, 580 nm emission) is determined. The resulting IC50 has an MSR of 3.1.

With `CC[C@@H]1C(=O)N(C)c2cnc(Nc3ccc(C(=O)NC4CCN(C)CC4)cc3OC)nc2N1C1CCCC1` [BI-2536], in data set [1] (phase II clinical trials), the “clearance (CL)” value is more than 1000 mL/min. Besides, the dose-limiting toxicity entry in data set [1] is “dose limited by myelosupression”. The “activity in preclinical xenograft models” value in data set [2] is “demonstrated activity”.
`O=C1NCCN1CCNc1ncc(Cl)c(-c2cc3cccc(-c4cc(F)ncc4Cl)c3s2)n1` [Example 13, 1-(2-{5-Chloro-4-[7-(5-chloro-2-fluoropyridin-4-yl)-benzo[b]thiophen-2-yl]pyrimidin-2-ylamino}ethyl)imidazolidin-2-one]: the IC50 in data set [3] was approximately 23 nM; in the data set with HCT116 cells, 11 nM. Also, the EC50 with HeLa Cells (n=1, MSR 2.5, read-out: mitotic EC50) turned out to be 45 nM; in the data set on HeLa Cells (n=2, MSR 2.4, read-out: DNA content EC50), 40 nM; in the data set on HeLa Cells (n=2, MSR 2.6, read-out: pHH3(s10) EC50), 42 nM.

What is called IC50 is the concentration that inhibits the measured activity by half. By EC50 is commonly meant the concentration giving half of the maximal effect.
